Experimental findings from ChEMBL document CHEMBL3046701, “Synthesis and biological activities of some N-hydroxymethylene and N-methoxymethylene thiazines” (Med Chem Res, 2007) are described below.

A value given as a limit tells only on which side of the number the result lay.

Series [1] deals with Penicillium. In words: Antifungal activity against Penicillium inclobium at 100 ug/ml after 72 to 96 hr by disk diffusion method. The format is functional. The note with it: read-out: IZ. (In agar diffusion tests the substance spreads into inoculated agar from a disc or well.)
In series [2] the test system is Staphylococcus aureus. The experiment in a line: Antibacterial activity against Staphylococcus aureus at 100 ug/ml after 24 hr by disk diffusion method. The note with it: read-out: IZ. The series is classed as functional.
For series [3], the system named is Bacillus subtilis. The experiment in a line: Antibacterial activity against Bacillus subtilis at 100 ug/ml after 24 hr by disk diffusion method. The format is functional. To be noted: read-out: IZ.
Series [4] concerns Escherichia coli. The experiment in a line: Antibacterial activity against Escherichia coli at 100 ug/ml after 24 hr by disk diffusion method. The series is classed as functional. To be noted: read-out: IZ.
The subject of series [5] is Klebsiella pneumoniae. The experiment in a line: Antibacterial activity against Klebsiella pneumoniae at 100 ug/ml after 24 hr by disk diffusion method. The format is functional. The note with it: read-out: IZ.
Series [6] deals with Aspergillus flavus. In words: Antifungal activity against Aspergillus flavus at 100 ug/ml after 72 to 96 hr by disk diffusion method. The format is functional. The note with it: read-out: IZ.
In series [7] the test system is Penicillium. The experiment in a line: Antifungal activity against Penicillium inclobium at 25 ug/ml after 72 to 96 hr by disk diffusion method. The series is classed as functional. The note with it: read-out: IZ.
For series [8], the system named is Staphylococcus aureus. In words: Antibacterial activity against Staphylococcus aureus at 25 ug/ml after 24 hr by disk diffusion method. The series is classed as functional. The note with it: read-out: IZ.
Series [9] deals with Bacillus subtilis. In words: Antibacterial activity against Bacillus subtilis at 25 ug/ml after 24 hr by disk diffusion method. The series is classed as functional. The note with it: read-out: IZ.
Series [10] concerns Escherichia coli. The experiment in a line: Antibacterial activity against Escherichia coli at 25 ug/ml after 24 hr by disk diffusion method. The format is functional. To be noted: read-out: IZ.
Series [11] has as its system Klebsiella pneumoniae. The experiment in a line: Antibacterial activity against Klebsiella pneumoniae at 25 ug/ml after 24 hr by disk diffusion method. The format is functional. To be noted: read-out: IZ.
For series [12], the system named is Aspergillus flavus. The experiment in a line: Antifungal activity against Aspergillus flavus at 25 ug/ml after 72 to 96 hr by disk diffusion method. The format is functional. To be noted: read-out: IZ.
Series [13] concerns Staphylococcus aureus. In words: Antibacterial activity against Staphylococcus aureus after 24 hr by disk diffusion method. The series is classed as functional.
For series [14], the system named is Bacillus subtilis. In words: Antibacterial activity against Bacillus subtilis after 24 hr by disk diffusion method. The format is functional.
The test system of series [15] is Escherichia coli. In words: Antibacterial activity against Escherichia coli after 24 hr by disk diffusion method. The series is classed as functional.
Series [16] concerns Klebsiella pneumoniae. In words: Antibacterial activity against Klebsiella pneumoniae after 24 hr by disk diffusion method. The format is functional.
Series [17] has as its system Penicillium. In words: Antifungal activity against Penicillium inclobium at 50 ug/ml after 72 to 96 hr by disk diffusion method. The series is classed as functional. The note with it: read-out: IZ.
Series [18] has as its system Staphylococcus aureus. In words: Antibacterial activity against Staphylococcus aureus at 50 ug/ml after 24 hr by disk diffusion method. The note with it: read-out: IZ. The series is classed as functional.
Series [19] deals with Bacillus subtilis. In words: Antibacterial activity against Bacillus subtilis at 50 ug/ml after 24 hr by disk diffusion method. The series is classed as functional. The note with it: read-out: IZ.
The test system of series [20] is Escherichia coli. The experiment in a line: Antibacterial activity against Escherichia coli at 50 ug/ml after 24 hr by disk diffusion method. The series is classed as functional. The note with it: read-out: IZ.
For series [21], the system named is Klebsiella pneumoniae. The experiment in a line: Antibacterial activity against Klebsiella pneumoniae at 50 ug/ml after 24 hr by disk diffusion method. The series is classed as functional. The note with it: read-out: IZ.
The subject of series [22] is Aspergillus flavus. The experiment in a line: Antifungal activity against Aspergillus flavus at 50 ug/ml after 72 to 96 hr by disk diffusion method. The format is functional. To be noted: read-out: IZ.
The subject of series [23] is Aspergillus flavus. The experiment in a line: Antifungal activity against Aspergillus flavus after 72 to 96 hr by disk diffusion method. The format is functional.
In series [24] the test system is Penicillium. The experiment in a line: Antifungal activity against Penicillium inclobium after 72 to 96 hr by disk diffusion method. The format is functional.
Series [25] in a line: Toxicity in po dosed Mus musculus albino (mouse). The series is classed as organism-based. To be noted: in vivo.

For `COCN1C(c2ccccc2)CS(=O)(=O)CC1c1ccccc1` (stereo unspecified), the zone of inhibition at 100 µg/mL in the series on Penicillium [1] worked out at 7 mm; with Staphylococcus aureus [2], 7 mm; in the series on Bacillus subtilis [3], 6 mm; in the series with Escherichia coli [4], 9 mm; in the series on Klebsiella pneumoniae [5], 7 mm; in the series on Aspergillus flavus [6], 6 mm.

Turning to `COCN1C(c2ccc(Cl)cc2)CS(=O)(=O)CC1c1ccc(Cl)cc1` (stereo unspecified), the zone of inhibition at 25 µg/mL in the series with Penicillium [7] turned out to be 14 mm; in the series on Staphylococcus aureus [8], 15 mm; in the series with Bacillus subtilis [9] it was 15 mm; in the series on Escherichia coli [10] it was 16 mm; in the series on Klebsiella pneumoniae [11] it was 16 mm; with Aspergillus flavus [12] it was 12 mm.

Consider `CCn1cc(C(=O)O)c(=O)c2cc(F)c(N3CCNCC3)cc21` [NORFLOXACIN], for which the “inhibition zone (IZ)” value in the series on Staphylococcus aureus [13], in the series on Bacillus subtilis [14], in the series with Escherichia coli [15] and in the series with Klebsiella pneumoniae [16] was 22 mm each time.

With `COCN1C(c2ccc(OC)cc2)CS(=O)(=O)CC1c1ccc(OC)cc1` (stereo unspecified), the zone of inhibition at 50 µg/mL in the series on Penicillium [17] was 11 mm; in the series on Staphylococcus aureus [18] it was 12 mm; in the series on Bacillus subtilis [19], 12 mm; with Escherichia coli [20] it was 11 mm; with Klebsiella pneumoniae [21], 11 mm; in the series on Aspergillus flavus [22], 10 mm.

With `COC1=CC(=O)C[C@@H](C)[C@]12Oc1c(Cl)c(OC)cc(OC)c1C2=O` [GRISEOFULVIN], the “inhibition zone (IZ)” value in the series on Aspergillus flavus [23] and with Penicillium [24] was 22 mm in each case.

In general, LD50 refers to the dose at which mortality reaches 50%. High values mean a less toxic substance, low ones a more toxic substance. Consider `O=S1(=O)CC(c2ccc(Cl)cc2)NC(c2ccc(Cl)cc2)C1` (stereo unspecified), for which, in series [25], the LD50 is not above 1000 mg/kg.

Take `O=S1(=O)CC(c2ccc(Cl)cc2)N(CO)C(c2ccc(Cl)cc2)C1` (stereo unspecified): the median lethal dose (LD50) in series [25] is not above 1000 mg/kg.
